Laboratory results from patent US10596259B2, “Tumor radiosensitization with monomethyl auristatin E (MMAE) and derivatives thereof” (The Regents of the University of California, priority 2015, dated 2020).
pIC50: −log10 of the molar value. Values joined by “and” are separate entries in the source; they are usually repeats but may differ in a detail not shown here. Equal entries are not always repeated. “Also recorded” adds a separate entry of the source. Where two headings read alike, the source gives them in different places. Non-standard residues stand in square brackets, D forms with d. Residues, ends and D or L forms follow the SMILES beside them. *: point of attachment. Dolaproine = CO[C@@H]([C@@H]1CCCN1)[C@@H](C)C(=O)O; Dil = CC[C@H](C)[C@H](NC)[C@@H](CC(=O)O)OC; X1 = C[C@@H](N*)[C@@H](O)c1ccccc1; NMeV = CN[C@H](C(=O)O)C(C)C

How the values were obtained:
XPA-1 cells = test: Neutral comet assay (DNA double strand breaks); assay type: cell-based; conditions: MMAE overnight, then IR
Procedure: (§1) Cells were treated for indicated length and doses of MMAE followed by 6 Gy. Cells were harvested 15 minutes after IR and underwent neutral electrophoresis (Trevigen). Comet tails were counted in multiple fields (>60 cells per sample) and analyzed using CometScore (TriTek Corp).

HCT-116 cells [1] = test: Cell cycle analysis by FACS with PI staining; assay type: cell-based, Human
Procedure: (§2) Cells were treated with 0, 1, 2, or 5 nM MMAE for 24 hours and then fixed in methanol. Cells were treated with RNAse, stained with propidium iodide and analyzed by FACS using FloJo software.
(§3) Cells were treated with MMAE for 24 hours and then fixed in methanol. Cells were treated with RNAse, stained with propidium iodide (PI), and analyzed by FACS using FlowJo software.

PANC-1 cells [2] = test: Cell cycle analysis by FACS with PI staining; assay type: cell-based, Human; conditions: 2 nmol/L MMAE, 24 hours
Procedure: as §2, §3

HCT-116 cells [3] = test: Neutral comet assay (DNA double strand breaks); assay type: cell-based, Human
Procedure: (§4) Cells were treated for 24 hours with indicated doses of MMAE and then irradiated with 6 Gy. Cells were harvested 15 minutes post IR, suspended in agarose gel and lysed per assay directions (Trevigen). Samples underwent electrophoresis under neutral conditions and were then stained with Sybr Green. Comet tails were counted in multiple fields (>60 cells per sample) and analyzed using CometScore (TriTek Corp).
as §1

779E cells [4] = test: Neutral comet assay (DNA double strand breaks); assay type: cell-based, Human; conditions: MMAE overnight in combination with IR
Procedure: as §4, §1

PANC-1 cells [5] = test: Alamar Blue cell viability assay; assay type: cell-based, Human
Procedure: (§5) Cells were plated in 96 well plates at varying cell densities and exposed to range of concentrations of MMAE or paclitaxel for 72 hrs. Alamar Blue (also known as resazurin) was added to the cells and allowed to incubate for 2 hrs at 37° C. Plates were analyzed using a plate reader with fluorescence measured at 560 nm. For irradiated cells, cells were treated with MMAE overnight followed by 6 Gy.
(§6) Cells were plated in 96-well plates and exposed to MMAE or paclitaxel for 72 hours and analyzed at 560 nm. For irradiated cells, cells were treated with MMAE overnight followed by 6 Gy.

779E cells [6] = test: Alamar Blue cell viability assay; assay type: cell-based, Human
Procedure: as §5, §6

CAL-27 cells [7] = test: Cell cycle analysis by flow cytometry (PI); assay type: cell-based, Human; conditions: 5 nM, 24 hrs
Procedure: Cells were treated with RNAse, stained with propidium iodide (PI) and analyzed by FACS using FloJo software.

CAL-27 cells [8] = test: Alamar Blue cell viability assay; assay type: cell-based, Human; conditions: 72 hours
Procedure: Alamar Blue (resazurin) was added to the cells and allowed to incubate for 2 hrs at 37° C. Plates were analyzed using a plate reader with fluorescence measured at 560 nm.

CC[C@H](C)[C@@H]([C@@H](CC(=O)N1CCC[C@H]1[C@H](OC)[C@@H](C)C(=O)N[C@H](C)[C@@H](O)c1ccccc1)OC)N(C)C(=O)[C@@H](NC(=O)[C@@H](NC)C(C)C)C(C)C [MMAE, monomethyl auristatin E] (H-[NMeV]V[Dil][Dolaproine]-X1)
comet tail length (XPA-1 cells): significantly increased comet tail length | cell-cycle profile (HCT-116 cells [1]; 1 nmol/L MMAE, 24 hours): did not alter the cell-cycle profile | cells blocked in G2/M (HCT-116 cells [1]; 5 nM (5 nmol/L) MMAE, 24 hrs): 50% | cells blocked in G2-M (PANC-1 cells [2]): 50% | comet tail length vs IR alone (HCT-116 cells [3]; 1 nM MMAE 24 hours, then 6 Gy): did not significantly increase; also recorded: did not increase DNA damage over IR alone | comet tail length vs IR alone (HCT-116 cells [3]; 5 nM MMAE 24 hours, then 6 Gy): significant increase; also recorded: significantly increased comet tail length | comet tail length vs IR alone (HCT-116 cells [3]; 5 nmol/L MMAE for 2 or 4 hours, then IR): did not increase comet tail length | comet tail length vs vehicle (HCT-116 cells [3]; non-irradiated, 1 or 5 nM MMAE overnight): no significant effect | comet tail length (779E cells [4]): significantly increased comet tail length | pIC50 (PANC-1 cells [5]; 72 hours exposure (Example 3), read-out: IC50): 9.22 | pIC50 (PANC-1 cells [5]; 72 hours exposure, read-out: IC50): 9.22 | pIC50 (PANC-1 cells [5]; IR 6 Gy combined with MMAE (Example 3), read-out: IC50 for MMAE): 9.40 | pIC50 (PANC-1 cells [5]; MMAE alone, no IR, continuous exposure, viability at 72 hours, read-out: IC50 for MMAE): 9.09 | pIC50 (PANC-1 cells [5]; MMAE overnight then 6 Gy IR, continuous exposure, viability at 72 hours, read-out: IC50 for MMAE): 9.46 | relative reduction in the IC50 of MMAE (PANC-1 cells [5]; MMAE with 6 Gy IR vs MMAE alone): > 50% and ~50% | pIC50 (PANC-1 cells [5]; non-irradiated (Example 3), read-out: IC50 for MMAE): 9.10 | pIC50 (779E cells [6]; 72 hours exposure): 8.25 | pIC50 (779E cells [6]; 72 hours exposure (Example 3)): 8.25 | cells in G2/M (CAL-27 cells [7]): 60% | pIC50 (CAL-27 cells [8]): 8.96
